From patent US8785457B2 (Cellzome Limited, priority 2009, dated 2014)
Where a name gives a salt, the structure may show the parent alone. Read-outs that look alike come from different tables or passages of the source.

Tests used:
[1] = target: T1, DNA-dependent protein kinase (DNA-PK) (Homo sapiens, UniProt P78527); test: kinobeads assay, DNA-PK; format: binding
T1 construct: endogenous in cells; host or cells: Jurkat, clone E6-1 (ATCC TIB-152) cell lysate
How it was run: (§1)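 Competitive binding in Jurkat cell lysate (5 mg/mL protein) against beads carrying an immobilized phenylmorpholin-chromen ligand, in DP buffer pH 7.4 with NP40, DTT and NaF. Bead-bound kinases were eluted and quantified by antibody dot blot with infrared detection, and IC50 was taken from dose-response curves of a 1:3 dilution series.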

PI3Kalpha (PI3Ka) = target: T2, PI3Kalpha (PI3Ka) (Homo sapiens, UniProt P42336); test: kinobeads assay, PI3Kalpha; format: binding
T2 construct: endogenous in cells; host or cells: cell lysate
How it was run: (§2)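 Competitive binding in cell lysate: test compounds at various concentrations compete with beads carrying an immobilized phenylmorpholin-chromen ligand. Bead-captured kinases are eluted and quantified by multiplexed immunodetection. IC50 values come from dose-response curves for each kinase.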

PI3K delta (PI3 Kd) = target: T3, PI3K delta (PI3 Kd) (Homo sapiens, UniProt O00329); test: kinobeads assay, PI3K delta; format: binding
T3 construct: endogenous in cells; host or cells: Jurkat, clone E6-1 (ATCC TIB-152) cell lysate
How it was run: as §1

PI3 Kgamma (PI3 Kg) = target: T4, PI3 Kgamma (PI3 Kg) (Homo sapiens, UniProt P48736); test: kinobeads assay, PI3Kgamma; format: binding
T4 construct: endogenous in cells; host or cells: cell lysate
How it was run: as §2

mTOR = target: T5, mTOR (Homo sapiens, UniProt P42345); test: mTOR kinobeads assay (competitive binding in Jurkat cell lysate, immunodetection)
T5 construct: endogenous in cells; host or cells: Jurkat, clone E6-1 (ATCC TIB-152) cell lysate
How it was run: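 IC50 derived from dose-response curves of mTOR captured on immobilized phenylmorpholin-chromen beads, detected by antibody dot blot with infrared fluorescence.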

PI3 Kbeta (PI3 Kb) = target: T6, PI3 Kbeta (PI3 Kb) (Homo sapiens, UniProt P42338); test: kinobeads assay, PI3Kbeta; format: binding
T6 construct: endogenous in cells; host or cells: cell lysate
Procedure: The kinobeads assay was performed as a competitive binding assay in which test compounds were added directly into a cell lysate. Test compounds (at various concentrations) and the affinity matrix (beads with immobilized phenylmorpholin-chromen ligand) were added to cell lysate aliquots and allowed to bind to the proteins contained in the lysate sample. After the incubation time the beads with captured proteins were separated from the lysate. Bound proteins were then eluted and the presence of kinases was detected and quantified using a multiplexed immunodetection format. Dose response curves for individual kinases were generated and IC50 values calculated.
The effect of the compounds on the kinases PI3Kalpha (PI3Ka), PI3 Kbeta (PI3 Kb) and PI3 Kgamma (PI3 Kg) were tested in the kinobeads assay as described (WO-A 2009/098021).

[2] = Further Kinobeads Data, read-out: DNAPK
[3] = Further Kinobeads Data, read-out: PI3Kd
[4] = Further Kinobeads Data, read-out: PI3Kg
[5] = Further Kinobeads Data, read-out: mTor
[6] = Further Kinobeads Data, read-out: PI3Kb
[7] = kinobeads assay, Table 6, read-out: Inhibition values (IC50) DNAPK
[8] = kinobeads assay, Table 6, read-out: Inhibition values (IC50) PI3Ka
[9] = kinobeads assay, Table 6, read-out: Inhibition values (IC50) PI3Kd
[10] = kinobeads assay, Table 6, read-out: Inhibition values (IC50) PI3Kg
[11] = kinobeads assay, Table 6, read-out: Inhibition values (IC50) mTOR
[12] = kinobeads assay, Table 6, read-out: Inhibition values (IC50) PI3Kb
[13] = Further Kinobeads Data, read-out: PI3Ka

T1 sequence (P78527 whole entry): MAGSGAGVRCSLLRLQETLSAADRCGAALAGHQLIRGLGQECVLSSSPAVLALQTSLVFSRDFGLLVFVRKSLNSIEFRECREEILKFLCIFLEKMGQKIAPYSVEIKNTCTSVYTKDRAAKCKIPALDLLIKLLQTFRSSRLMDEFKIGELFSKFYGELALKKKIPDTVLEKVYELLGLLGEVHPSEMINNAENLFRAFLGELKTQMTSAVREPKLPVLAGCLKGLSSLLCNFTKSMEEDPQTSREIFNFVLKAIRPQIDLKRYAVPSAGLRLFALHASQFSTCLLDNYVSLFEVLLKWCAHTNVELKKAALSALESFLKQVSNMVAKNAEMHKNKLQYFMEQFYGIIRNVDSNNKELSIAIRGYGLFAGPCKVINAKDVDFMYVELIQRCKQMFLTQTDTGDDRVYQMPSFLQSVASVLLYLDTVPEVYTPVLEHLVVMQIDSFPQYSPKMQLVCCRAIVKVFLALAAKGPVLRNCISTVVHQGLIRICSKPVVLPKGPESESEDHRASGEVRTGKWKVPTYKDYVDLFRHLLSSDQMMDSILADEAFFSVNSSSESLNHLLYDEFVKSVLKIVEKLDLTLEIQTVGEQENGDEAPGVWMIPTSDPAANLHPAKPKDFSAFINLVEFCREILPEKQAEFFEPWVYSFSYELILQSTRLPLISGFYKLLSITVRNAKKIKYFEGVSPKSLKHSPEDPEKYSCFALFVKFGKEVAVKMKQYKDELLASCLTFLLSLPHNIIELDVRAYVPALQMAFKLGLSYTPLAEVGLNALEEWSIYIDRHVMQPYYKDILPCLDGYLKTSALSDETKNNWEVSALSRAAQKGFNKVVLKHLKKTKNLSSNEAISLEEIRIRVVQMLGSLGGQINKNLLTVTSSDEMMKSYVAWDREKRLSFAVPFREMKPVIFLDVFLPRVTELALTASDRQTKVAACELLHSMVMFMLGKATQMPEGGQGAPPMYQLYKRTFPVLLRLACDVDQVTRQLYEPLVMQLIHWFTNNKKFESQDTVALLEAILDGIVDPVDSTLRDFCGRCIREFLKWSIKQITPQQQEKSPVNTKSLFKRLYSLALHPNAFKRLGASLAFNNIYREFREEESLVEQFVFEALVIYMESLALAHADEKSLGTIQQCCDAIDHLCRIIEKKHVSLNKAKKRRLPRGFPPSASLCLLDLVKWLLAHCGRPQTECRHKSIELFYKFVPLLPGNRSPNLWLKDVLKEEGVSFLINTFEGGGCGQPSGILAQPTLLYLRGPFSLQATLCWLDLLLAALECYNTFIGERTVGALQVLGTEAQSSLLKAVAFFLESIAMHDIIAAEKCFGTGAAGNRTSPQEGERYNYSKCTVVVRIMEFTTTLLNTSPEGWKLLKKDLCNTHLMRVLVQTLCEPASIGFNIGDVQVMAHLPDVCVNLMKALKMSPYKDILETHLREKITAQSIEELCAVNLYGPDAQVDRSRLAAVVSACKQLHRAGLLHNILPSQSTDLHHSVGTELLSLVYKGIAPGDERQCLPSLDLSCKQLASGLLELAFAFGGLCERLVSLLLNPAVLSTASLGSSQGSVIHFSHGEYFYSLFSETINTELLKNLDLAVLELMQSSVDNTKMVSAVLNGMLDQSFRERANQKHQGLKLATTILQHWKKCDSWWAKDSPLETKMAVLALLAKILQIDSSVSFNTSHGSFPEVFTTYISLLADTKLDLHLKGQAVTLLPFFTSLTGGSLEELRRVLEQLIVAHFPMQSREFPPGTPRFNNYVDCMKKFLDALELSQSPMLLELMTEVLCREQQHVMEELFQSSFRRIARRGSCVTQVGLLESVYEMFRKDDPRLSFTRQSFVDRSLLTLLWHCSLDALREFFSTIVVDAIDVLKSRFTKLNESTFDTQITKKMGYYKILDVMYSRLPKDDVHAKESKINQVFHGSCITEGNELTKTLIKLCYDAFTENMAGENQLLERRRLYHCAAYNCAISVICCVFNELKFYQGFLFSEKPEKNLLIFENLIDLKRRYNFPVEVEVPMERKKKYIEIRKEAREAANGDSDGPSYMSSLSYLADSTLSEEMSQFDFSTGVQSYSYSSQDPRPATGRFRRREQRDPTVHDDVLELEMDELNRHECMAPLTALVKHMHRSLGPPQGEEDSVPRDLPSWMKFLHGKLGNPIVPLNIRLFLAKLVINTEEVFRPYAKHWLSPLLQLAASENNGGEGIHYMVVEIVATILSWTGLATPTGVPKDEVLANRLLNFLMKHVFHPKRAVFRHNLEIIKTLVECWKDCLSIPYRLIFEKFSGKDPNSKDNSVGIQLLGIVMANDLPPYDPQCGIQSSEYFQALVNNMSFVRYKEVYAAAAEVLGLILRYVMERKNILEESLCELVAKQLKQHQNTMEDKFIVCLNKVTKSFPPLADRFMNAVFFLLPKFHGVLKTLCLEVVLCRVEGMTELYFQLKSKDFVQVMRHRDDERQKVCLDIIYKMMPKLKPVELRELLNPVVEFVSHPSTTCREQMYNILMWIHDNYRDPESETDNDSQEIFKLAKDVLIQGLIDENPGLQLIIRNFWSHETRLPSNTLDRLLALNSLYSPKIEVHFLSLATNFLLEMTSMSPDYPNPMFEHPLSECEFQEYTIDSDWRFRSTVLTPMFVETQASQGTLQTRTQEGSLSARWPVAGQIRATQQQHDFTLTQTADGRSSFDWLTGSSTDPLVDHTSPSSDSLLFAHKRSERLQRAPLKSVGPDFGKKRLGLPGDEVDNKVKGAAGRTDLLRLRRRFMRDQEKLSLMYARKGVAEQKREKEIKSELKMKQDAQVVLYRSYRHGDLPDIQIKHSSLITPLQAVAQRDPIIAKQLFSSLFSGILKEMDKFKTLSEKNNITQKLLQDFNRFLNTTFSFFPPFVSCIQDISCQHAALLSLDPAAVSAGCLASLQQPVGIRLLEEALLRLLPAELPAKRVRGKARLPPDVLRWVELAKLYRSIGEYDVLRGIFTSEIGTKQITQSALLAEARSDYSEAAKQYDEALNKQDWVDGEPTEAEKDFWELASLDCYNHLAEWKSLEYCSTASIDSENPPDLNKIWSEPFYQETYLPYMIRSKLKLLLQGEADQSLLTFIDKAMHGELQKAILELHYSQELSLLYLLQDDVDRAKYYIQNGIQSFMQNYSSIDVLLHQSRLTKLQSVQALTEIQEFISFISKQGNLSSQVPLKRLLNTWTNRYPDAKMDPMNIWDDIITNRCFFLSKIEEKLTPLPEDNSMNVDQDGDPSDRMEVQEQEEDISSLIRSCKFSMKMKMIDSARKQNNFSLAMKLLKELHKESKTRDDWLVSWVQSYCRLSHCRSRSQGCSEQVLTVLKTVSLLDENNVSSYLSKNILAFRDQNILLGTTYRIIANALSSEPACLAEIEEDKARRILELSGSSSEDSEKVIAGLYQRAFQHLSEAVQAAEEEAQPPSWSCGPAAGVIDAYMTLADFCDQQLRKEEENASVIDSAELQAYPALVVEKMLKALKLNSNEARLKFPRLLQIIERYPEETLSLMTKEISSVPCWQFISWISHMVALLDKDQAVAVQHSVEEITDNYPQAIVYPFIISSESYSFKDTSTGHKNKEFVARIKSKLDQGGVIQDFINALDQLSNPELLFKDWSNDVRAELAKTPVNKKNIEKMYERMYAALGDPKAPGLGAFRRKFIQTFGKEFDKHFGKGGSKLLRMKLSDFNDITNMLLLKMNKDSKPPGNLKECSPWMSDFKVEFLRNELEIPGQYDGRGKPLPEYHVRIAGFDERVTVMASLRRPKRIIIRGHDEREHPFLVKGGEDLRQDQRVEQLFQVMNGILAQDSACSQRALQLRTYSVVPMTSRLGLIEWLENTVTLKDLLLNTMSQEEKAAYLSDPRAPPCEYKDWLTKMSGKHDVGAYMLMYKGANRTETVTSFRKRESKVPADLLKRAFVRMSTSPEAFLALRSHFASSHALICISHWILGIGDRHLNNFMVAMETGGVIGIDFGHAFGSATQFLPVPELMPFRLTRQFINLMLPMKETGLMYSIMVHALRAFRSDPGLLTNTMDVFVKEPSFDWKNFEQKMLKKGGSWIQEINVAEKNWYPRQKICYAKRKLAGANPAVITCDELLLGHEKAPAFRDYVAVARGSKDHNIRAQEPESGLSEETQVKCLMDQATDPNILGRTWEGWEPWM

| IC50 [1, 2] [µM] | PI3Ka (PI3Kalpha (PI3Ka); Further Kinobeads Data) | IC50 (PI3K delta (PI3 Kd); [3]) [µM] | IC50 (PI3 Kgamma (PI3 Kg); [4]) [µM] | IC50 (mTOR; [5]) [µM] | IC50 (PI3 Kbeta (PI3 Kb); [6]) [µM] | IC50 [1, 7] [µM] | IC50 (PI3Kalpha (PI3Ka); [8]) [µM] | IC50 (PI3K delta (PI3 Kd); [9]) [µM] | IC50 (PI3 Kgamma (PI3 Kg); [10]) [µM] | IC50 (mTOR; [11]) [µM] | IC50 (PI3 Kbeta (PI3 Kb); [12]) [µM] | IC50 ([1]; kinobeads assay, Table 4, read-out: Inhibition values (IC50) DNA-PK) [µM] | Inhibition values (IC50) PI3Ka (PI3Kalpha (PI3Ka); kinobeads assay, Table 6) | IC50 (PI3K delta (PI3 Kd); kinobeads assay, Table 4, read-out: Inhibition values (IC50) PI3Kd) [µM] | IC50 (mTOR; kinobeads assay, Table 4, read-out: Inhibition values (IC50) mTor) [µM] | IC50 (PI3Kalpha (PI3Ka); [13]) [µM] | SMILES |
| --- | --- | --- | --- | --- | --- | --- | --- | --- | --- | --- | --- | --- | --- | --- | --- | --- | --- |
| > 10 | D (D >10 μM) | > 10 | > 10 | 0.1 to 1 | > 10 |  |  |  |  |  |  |  |  |  |  |  | C[C@H]1COCCN1c1nc(-c2ccc(NC(=O)NC3CC3)cc2F)nc2c1CN(C(=O)OC(C)(C)C)C2 [Example 144, (S)-tert-Butyl 2-(4-(3-cyclopropylureido)-2-fluorophenyl)-4-(3-methylmorpholino)-5H-pyrrolo[3,4-d]pyrimidine-6(7H)-carboxylate] |
|  |  |  |  |  |  | > 10 | 1 to 10 | > 10 | > 10 | < 0.1 | > 10 |  |  |  |  |  | C[C@H]1COCCN1c1nc(-c2ccc(NC(=O)NC3CC3)cc2)nc2c1CN(CCCC(=O)O)C2 [Example 134, (S)-4-(2-(4-(3-cyclopropylureido)phenyl)-4-(3-methylmorpholino)-5H-pyrrolo[3,4-d]pyrimidin-6(7H)-yl)butanoic acid] |
|  |  |  |  |  |  | > 10 |  | 1 to 10 | 0.1 to 1 | < 0.1 | 1 to 10 | > 10 | B (B >0.1 μM < 1 μM) | 1 to 10 | < 0.1 |  | C[C@H]1COCCN1c1nc(-c2ccc(NC(N)=O)cc2)nc2c1CNC2 [Example 5, (S)-1-(4-(4-(3-methylmorpholino)-6,7-dihydro-5H-pyrrolo[3,4-d]pyrimidin-2-yl)phenyl)urea] |
|  |  |  |  |  |  | > 10 |  | > 10 | > 10 | 0.1 to 1 | > 10 |  | D (D >10 μM) |  |  |  | CCOC(=O)N1Cc2nc(-c3ccc(NC(=O)Nc4ccc(CO)cc4)cc3)nc(N3CCOC[C@@H]3C)c2C1 [Example 119, (S)-ethyl 2-(4-(3-(4-(hydroxymethyl)phenyl)ureido)phenyl)-4-(3-methylmorpholino)-5H-pyrrolo[3,4-d]pyrimidine-6(7H)-carboxylate] |
| > 10 | D (D >10 μM) | 1 to 10 | > 10 | < 0.1 | > 10 |  |  |  |  |  |  |  |  |  |  |  | CCNC(=O)Nc1ccc(-c2nc3c(c(N4CCOC[C@@H]4C)n2)CN(C(C)=O)C3)c(F)c1 [Example 157, (S)-1-(4-(6-acetyl-4-(3-methylmorpholino)-6,7-dihydro-5H-pyrrolo[3,4-d]pyrimidin-2-yl)-3-fluorophenyl)-3-ethylurea] |
| > 10 | D (D >10 μM) | > 10 | > 10 | < 0.1 | > 10 |  |  |  |  |  |  |  |  |  |  |  | CCNC(=O)Nc1ccc(-c2nc3c(c(N4CCOC[C@@H]4C)n2)CNC3)c(F)c1.Cl [Example 158, (S)-1-ethyl-3-(3-fluoro-4-(4-(3-methylmorpholino)-6,7-dihydro-5H-pyrrolo[3,4-d]pyrimidin-2-yl)phenyl)urea hydrochloride] |
|  |  |  |  |  |  | > 10 |  | 0.1 to 1 | 1 to 10 | < 0.1 | 1 to 10 |  | B (B >0.1 μM < 1 μM) |  |  |  | CCOC(=O)N1Cc2nc(-c3ccc(NC(=O)NCCN)cc3)nc(N3CCOC[C@@H]3C)c2C1 [Example 112, (S)-ethyl 2-(4-(3-(2-aminoethyl)ureido)phenyl)-4-(3-methylmorpholino)-5H-pyrrolo[3,4-d]pyrimidine-6(7H)-carboxylate] |
|  |  |  |  |  |  | > 10 |  | > 10 | > 10 | 0.1 to 1 | > 10 |  | D (D >10 μM) |  |  |  | CCOC(=O)N1Cc2nc(-c3ccc(NC(=O)Nc4cccc(O)c4)cc3)nc(N3CCOC[C@@H]3C)c2C1 [Example 111, (S)-ethyl 2-(4-(3-(3-hydroxyphenyl)ureido)phenyl)-4-(3-methylmorpholino)-5H-pyrrolo[3,4-d]pyrimidine-6(7H)-carboxylate] |
|  |  |  |  |  |  | > 10 | 1 to 10 | 1 to 10 | > 10 | 0.1 to 1 | > 10 |  |  |  |  |  | CCOC(=O)N1Cc2nc(-c3ccc(NC(=O)NCCNC(C)=O)cc3)nc(N3CCOC[C@@H]3C)c2C1 [Example 124, (S)-ethyl 2-(4-(3-(2-acetamidoethyl)ureido)phenyl)-4-(3-methylmorpholino)-5H-pyrrolo[3,4-d]pyrimidine-6(7H)-carboxylate] |
| 1 to 10 |  | 1 to 10 | > 10 | < 0.1 | > 10 |  |  |  |  |  |  |  |  |  |  | 1 to 10 | C[C@@H]1COCCN1c1nc(-c2ccc(NC(=O)NC3CC3)cc2F)nc2c1CN(C(=O)OC(C)(C)C)C2 [Example 182, (R)-tert-butyl 2-(4-(3-cyclopropylureido)-2-fluorophenyl)-4-(3-methylmorpholino)-5H-pyrrolo[3,4-d]pyrimidine-6(7H)-carboxylate] |
| > 10 | D (D >10 μM) | > 10 | > 10 | 0.1 to 1 | > 10 |  |  |  |  |  |  |  |  |  |  |  | CCNC(=O)Nc1ccc(-c2nc3c(c(N4CCOCC4)n2)CN(C(=O)OC(C)(C)C)C3)c(F)c1 [Example 145, tert-butyl 2-(4-(3-ethylureido)-2-fluorophenyl)-4-morpholino-5H-pyrrolo[3,4-d]pyrimidine-6(7H)-carboxylate] |
|  |  |  |  |  |  | > 10 |  | 0.1 to 1 | 1 to 10 | 0.1 to 1 | 1 to 10 |  | B (B >0.1 μM < 1 μM) |  |  |  | CCOC(=O)N1Cc2nc(-c3ccc(NC(=O)NCC(N)=O)cc3)nc(N3CCOC[C@@H]3C)c2C1 [Example 114, (S)-ethyl 2-(4-(3-(2-amino-2-oxoethyl)ureido)phenyl)-4-(3-methylmorpholino)-5H-pyrrolo[3,4-d]pyrimidine-6(7H)-carboxylate] |
|  |  |  |  |  |  | > 10 | 1 to 10 | 1 to 10 | > 10 | < 0.1 | 1 to 10 |  |  |  |  |  | CCNC(=O)Nc1ccc(-c2nc3c(c(N4CCOCC4)n2)CN(C(C)=O)C3)cc1 [Example 99, 1-(4-(6-acetyl-4-morpholino-6,7-dihydro-5H-pyrrolo[3,4-d]pyrimidin-2-yl)phenyl)-3-ethylurea] |
|  |  |  |  |  |  | > 10 | 1 to 10 | 1 to 10 | > 10 | < 0.1 | 1 to 10 |  |  |  |  |  | CC(=O)NCCCC(=O)N1Cc2nc(-c3ccc(NC(=O)NC4CC4)cc3)nc(N3CCOC[C@@H]3C)c2C1 [Example 133, (S)—N-(4-(2-(4-(3-cyclopropylureido)phenyl)-4-(3-methylmorpholino)-5H-pyrrolo[3,4-d]pyrimidin-6(7H)-yl)-4-oxobutyl)acetamide] |
| > 10 |  | > 10 | > 10 | < 0.1 | > 10 |  |  |  |  |  |  |  |  |  |  | 1 to 10 | CCNC(=O)Nc1ccc(-c2nc3c(c(N4CCOCC4)n2)CNC3)c(F)c1 [Example 150, 1-Ethyl-3-(3-fluoro-4-(4-morpholino-6,7-dihydro-5H-pyrrolo[3,4-d]pyrimidin-2-yl)phenyl)urea hydrochloride] |
|  |  |  |  |  |  | > 10 | 1 to 10 | 1 to 10 | > 10 | < 0.1 | 1 to 10 |  |  |  |  |  | C[C@H]1COCCN1c1nc(-c2ccc(NC(=O)NC3CC3)cc2)nc2c1CN(CC1CCNCC1)C2 [Example 130, (S)-1-cyclopropyl-3-(4-(4-(3-methylmorpholino)-6-(piperidin-4-ylmethyl)-6,7-dihydro-5H-pyrrolo[3,4-d]pyrimidin-2-yl)phenyl)urea] |
|  |  |  |  |  |  | > 10 |  | > 10 | > 10 | 0.1 to 1 | > 10 |  | D (D >10 μM) |  |  |  | CCOC(=O)N1Cc2nc(-c3ccc(NC(=O)NCC(=O)O)cc3)nc(N3CCOC[C@@H]3C)c2C1 [Example 115, (S)-2-(3-(4-(6-(ethoxycarbonyl)-4-(3-methylmorpholino)-6,7-dihydro-5H-pyrrolo[3,4-d]pyrimidin-2-yl)phenyl)ureido)acetic acid] |
|  |  |  |  |  |  | > 10 |  | > 10 | > 10 | 0.1 to 1 | > 10 |  | D (D >10 μM) |  |  |  | CCNC(=O)Nc1ccc(-c2nc3c(c(N4CCOC[C@@H]4C)n2)CCN(C)C3)c(C)c1 [Example 109, (S)-1-ethyl-3-(3-methyl-4-(7-methyl-4-(3-methylmorpholino)-5,6,7,8-tetrahydropyrido[3,4-d]pyrimidin-2-yl)phenyl)urea] |
